Test results published in ChEMBL document CHEMBL1150972, “Biochemical and cellular effects of c-Src kinase-selective pyrido[2, 3-d]pyrimidine tyrosine kinase inhibitors” (Biochem Pharmacol, 2000).
pIC50: −log10 of the molar value.

What was measured:
[1] = system: HT-29; assay: Inhibition of HT-29 clonogenic growth in soft agar with pretreatment; type: functional, cell-based; conditions: Homo sapiens
[2] = target: Tyrosine-protein kinase Lck (Homo sapiens, UniProt P06239); assay: Inhibition of Lck
Tyrosine-protein kinase Lck, sequence (P06239 whole entry): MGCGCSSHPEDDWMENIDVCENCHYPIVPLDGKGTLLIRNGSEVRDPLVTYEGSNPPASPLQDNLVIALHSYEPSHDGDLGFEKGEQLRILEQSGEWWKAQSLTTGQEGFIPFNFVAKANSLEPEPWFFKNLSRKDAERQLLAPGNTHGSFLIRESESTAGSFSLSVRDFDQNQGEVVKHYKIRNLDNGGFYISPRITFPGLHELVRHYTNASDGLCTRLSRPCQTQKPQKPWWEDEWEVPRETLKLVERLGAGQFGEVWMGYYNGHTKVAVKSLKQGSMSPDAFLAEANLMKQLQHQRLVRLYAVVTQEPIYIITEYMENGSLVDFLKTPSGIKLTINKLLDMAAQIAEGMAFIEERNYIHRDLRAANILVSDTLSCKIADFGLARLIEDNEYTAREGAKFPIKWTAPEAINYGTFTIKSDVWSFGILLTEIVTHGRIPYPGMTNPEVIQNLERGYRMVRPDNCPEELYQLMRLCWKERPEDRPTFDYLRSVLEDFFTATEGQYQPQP

[3] = system: SW-620; assay: Inhibition of SW-620 cell proliferation; type: functional, cell-based; conditions: Homo sapiens
[4] = system: SW-620; assay: Inhibition of SW-620 clonogenic growth in soft agar with pretreatment; type: functional, cell-based; conditions: Homo sapiens
[5] = system: HCT-8; assay: Inhibition of HCT-8 clonogenic growth in soft agar without pretreatment; type: functional, cell-based; conditions: Homo sapiens
[6] = system: HT-29; assay: Inhibition of HT-29 clonogenic growth in soft agar without pretreatment; type: functional, cell-based; conditions: Homo sapiens
[7] = system: HCT-8; assay: Inhibition of HCT-8 cell proliferation; type: functional, cell-based; conditions: Homo sapiens
[8] = system: SW-620; assay: Inhibition of SW-620 clonogenic growth in soft agar without pretreatment; type: functional, cell-based; conditions: Homo sapiens
[9] = system: HT-29; assay: Inhibition of HT-29 cell proliferation; type: functional, cell-based; conditions: Homo sapiens
[10] = target: Fibroblast growth factor receptor 1 (Homo sapiens, UniProt P11362); assay: Inhibition of bFGFR
Fibroblast growth factor receptor 1, sequence (P11362 whole entry): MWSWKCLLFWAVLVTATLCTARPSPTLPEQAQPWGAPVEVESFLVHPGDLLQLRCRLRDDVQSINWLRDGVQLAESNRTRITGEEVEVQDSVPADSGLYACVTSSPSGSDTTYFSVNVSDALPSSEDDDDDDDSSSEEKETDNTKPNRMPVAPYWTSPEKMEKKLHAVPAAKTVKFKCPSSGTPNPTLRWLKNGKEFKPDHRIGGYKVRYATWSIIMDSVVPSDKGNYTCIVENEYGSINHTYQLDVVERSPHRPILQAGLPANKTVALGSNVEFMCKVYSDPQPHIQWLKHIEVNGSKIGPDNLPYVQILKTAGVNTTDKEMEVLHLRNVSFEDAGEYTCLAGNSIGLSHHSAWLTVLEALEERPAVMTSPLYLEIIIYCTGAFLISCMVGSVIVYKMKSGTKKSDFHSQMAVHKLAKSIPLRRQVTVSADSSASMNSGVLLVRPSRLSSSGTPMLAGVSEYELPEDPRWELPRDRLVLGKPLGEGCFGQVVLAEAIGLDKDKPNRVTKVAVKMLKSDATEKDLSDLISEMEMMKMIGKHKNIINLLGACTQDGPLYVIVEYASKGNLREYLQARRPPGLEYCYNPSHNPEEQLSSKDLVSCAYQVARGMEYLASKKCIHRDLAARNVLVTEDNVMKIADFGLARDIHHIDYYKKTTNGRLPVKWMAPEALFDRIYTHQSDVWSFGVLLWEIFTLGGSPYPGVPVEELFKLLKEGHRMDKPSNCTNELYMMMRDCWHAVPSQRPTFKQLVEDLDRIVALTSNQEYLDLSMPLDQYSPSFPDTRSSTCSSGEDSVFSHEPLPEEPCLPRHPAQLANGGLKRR

[11] = species: Homo sapiens; assay: Selectivity for c-Src compared to bFGFR
[12] = species: Homo sapiens; assay: Selectivity for c-Src compared to PDGFR
[13] = system: HCT-8; assay: Inhibition of HCT-8 clonogenic growth in soft agar with pretreatment; type: functional, cell-based; conditions: Homo sapiens
[14] = target: Proto-oncogene tyrosine-protein kinase Src (Homo sapiens, UniProt P12931); assay: Inhibition of c-Src
Proto-oncogene tyrosine-protein kinase Src, sequence (P12931 2-536 limits assumed): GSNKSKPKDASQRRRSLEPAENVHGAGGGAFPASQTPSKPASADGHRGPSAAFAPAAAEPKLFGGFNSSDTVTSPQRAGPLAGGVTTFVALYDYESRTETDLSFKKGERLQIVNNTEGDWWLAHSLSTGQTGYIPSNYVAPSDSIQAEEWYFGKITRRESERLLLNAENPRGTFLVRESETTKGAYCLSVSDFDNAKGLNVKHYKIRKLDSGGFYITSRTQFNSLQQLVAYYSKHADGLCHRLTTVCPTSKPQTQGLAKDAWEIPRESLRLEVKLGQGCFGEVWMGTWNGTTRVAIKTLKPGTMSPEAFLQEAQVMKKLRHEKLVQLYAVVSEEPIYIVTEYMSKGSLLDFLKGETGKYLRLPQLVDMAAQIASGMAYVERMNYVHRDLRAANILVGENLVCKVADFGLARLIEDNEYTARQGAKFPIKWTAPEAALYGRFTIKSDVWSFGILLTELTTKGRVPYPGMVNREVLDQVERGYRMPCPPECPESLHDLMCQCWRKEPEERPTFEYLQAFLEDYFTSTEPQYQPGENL

[15] = target: Platelet-derived growth factor receptor (Homo sapiens, UniProt P09619+P16234); assay: Inhibition of PDGFR; type: protein-complex assay
[16] = system: A-431; assay: Inhibition of 3H-thymidine incorporation into A-431 cells; type: functional, cell-based; conditions: Homo sapiens
[17] = system: NIH3T3; assay: Inhibition of 3H-thymidine incorporation into NIH3T3 cells; type: functional, cell-based; conditions: Mus musculus
[18] = target: Epidermal growth factor receptor (Homo sapiens, UniProt P00533)
Epidermal growth factor receptor, sequence (P00533 whole entry): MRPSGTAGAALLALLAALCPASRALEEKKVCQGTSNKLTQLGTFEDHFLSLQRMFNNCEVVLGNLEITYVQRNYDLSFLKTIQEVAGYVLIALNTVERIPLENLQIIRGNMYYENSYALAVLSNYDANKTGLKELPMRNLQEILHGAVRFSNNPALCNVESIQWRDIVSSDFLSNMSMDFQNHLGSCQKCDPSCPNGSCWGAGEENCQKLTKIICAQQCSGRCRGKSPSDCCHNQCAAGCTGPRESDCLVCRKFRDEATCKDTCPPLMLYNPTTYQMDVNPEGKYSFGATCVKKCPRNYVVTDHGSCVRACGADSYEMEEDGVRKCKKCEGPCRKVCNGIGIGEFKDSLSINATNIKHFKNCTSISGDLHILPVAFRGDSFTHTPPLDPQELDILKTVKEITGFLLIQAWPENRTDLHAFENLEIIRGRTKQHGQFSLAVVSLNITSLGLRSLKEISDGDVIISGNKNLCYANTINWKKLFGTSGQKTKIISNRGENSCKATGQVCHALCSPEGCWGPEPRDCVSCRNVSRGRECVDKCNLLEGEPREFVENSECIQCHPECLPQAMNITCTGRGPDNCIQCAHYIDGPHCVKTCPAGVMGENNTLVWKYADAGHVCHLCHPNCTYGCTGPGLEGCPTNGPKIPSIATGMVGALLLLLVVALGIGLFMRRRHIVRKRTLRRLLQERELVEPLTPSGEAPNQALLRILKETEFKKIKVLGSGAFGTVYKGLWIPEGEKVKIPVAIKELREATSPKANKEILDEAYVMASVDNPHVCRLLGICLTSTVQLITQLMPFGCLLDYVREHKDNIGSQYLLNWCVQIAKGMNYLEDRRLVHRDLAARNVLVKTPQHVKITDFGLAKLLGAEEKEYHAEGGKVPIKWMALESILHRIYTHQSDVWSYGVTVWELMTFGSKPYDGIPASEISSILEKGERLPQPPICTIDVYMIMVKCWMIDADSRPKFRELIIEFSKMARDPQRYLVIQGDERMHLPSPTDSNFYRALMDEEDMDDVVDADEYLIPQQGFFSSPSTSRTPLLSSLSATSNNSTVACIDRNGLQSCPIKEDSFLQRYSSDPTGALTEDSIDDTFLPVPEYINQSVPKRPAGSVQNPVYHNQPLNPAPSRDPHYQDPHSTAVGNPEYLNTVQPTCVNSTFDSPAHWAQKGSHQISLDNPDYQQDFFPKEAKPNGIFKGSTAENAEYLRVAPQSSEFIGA

Compound | pIC50 [1] | pIC50 [2] | pIC50 [3] | pIC50 [4] | pIC50 [5] | pIC50 [6] | pIC50 [7] | pIC50 [8] | pIC50 [9] | pIC50 [10] | Ratio [11] | Ratio [12] | pIC50 [13] | pIC50 [14] | pIC50 [15] | pIC50 [16] | pIC50 [17] | pIC50 [18]
Cn1c(=O)c(-c2c(Cl)cccc2Cl)cc2cnc(Nc3ccc(F)cc3)nc21 | 5.82 | > 8.30 | 6.21 | 5.81 | 5.94 | 5.81 | 6.18 | 6.40 | 6.21 |  |  |  |  |  |  |  |  | 
CCN(CCOc1ccc(Nc2ncc3cc(-c4c(Cl)cccc4Cl)c(=O)n(C)c3n2)cc1)C(C)=O | 5.76 | > 8.30 | 6.81 |  | < 5.30 | > 5.30 | 6.00 |  | 6.58 | 6.61 | 27 | 51.2 | < 5.30 | 8.04 | 6.33 |  |  | 
CSc1cccc(Nc2ncc3cc(-c4c(Cl)cccc4Cl)c(=O)n(C)c3n2)c1 | 5.92 | > 8.30 | 6.03 | 5.95 | 5.89 | 5.89 | 5.95 | 6.01 | 6.09 | 5.90 |  |  | 5.60 |  |  |  |  | 
Cn1c(=O)c(-c2c(Cl)cccc2Cl)cc2cnc(Nc3ccc(N4CCOCC4)cc3)nc21 | 5.92 | > 8.30 |  | 6.28 | 5.90 | 5.86 |  | 6.33 |  | 7.01 | 11.8 | 76.2 | 5.86 | 8.08 | 6.20 | 6.61 | 6.77 | 
Cc1cc(Nc2ncc3cc(-c4c(Cl)cccc4Cl)c(=O)n(C)c3n2)ccc1F | 6.33 | > 8.30 | 6.55 |  | 6.59 | 5.82 | 6.35 |  | 6.34 | 6.03 | 55.6 | 84.9 | 6.21 | 7.77 | 5.84 | 6.67 | 6.77 | 6.41
CCOc1ccc(Nc2ncc3cc(-c4c(Cl)cccc4Cl)c(=O)n(C)c3n2)cc1 | 6.12 | > 8.30 | 6.18 | 6.34 | 5.90 | 6.00 | 5.94 | 6.44 | 6.24 | 6.35 | 27.7 | 144 | 5.49 | 7.79 | 5.63 | 6.35 | 6.42 | 
